# What was measured:
# [1] = target: T1, Prostaglandin E2 receptor EP2 subtype (Homo sapiens, UniProt P43116); test: cAMP Assay: A 384-well drug plate was prepared to contain test compounds, PGE2 and cAMP in 16 serial dilutions in triplicate, using a Biomek station. HEK-EBNA cells expressing a target PG receptor subtype (EP2 or EP4) were suspended in a stimulation buffer (HBSS, 0.1% BSA, 0.5 mM IBMX and 5 mM HEPES, pH 7.4) in a density of 10^4 cells/5 μl. The reaction was initiated by mixing 5 μL drug dilutions with 5 μl of HEK-EBNA cells in a well, carried out for 30 min at room temperature, and followed by the addition of 5 μl anti-cAMP acceptor beads in the control buffer with Tween-20 (25 mM NaCl, 0.03% Tween-20, 5 mM HEPES, pH7.4). After 30 min in the dark at room temperature, the mixtures were incubated with 15 μl biotinylated-cAMP/strpavidin donor beads in Lysis/Detection buffer (0.1% BSA, 0.3% Tween-20 and 5 mM HEPES, pH7.4) for 45 min at the room temperature. Fluorescence changes were read using a Fusion-alpha HT microplate reader.; format: functional, cell-based, 104
# T1 sequence (P43116 whole entry): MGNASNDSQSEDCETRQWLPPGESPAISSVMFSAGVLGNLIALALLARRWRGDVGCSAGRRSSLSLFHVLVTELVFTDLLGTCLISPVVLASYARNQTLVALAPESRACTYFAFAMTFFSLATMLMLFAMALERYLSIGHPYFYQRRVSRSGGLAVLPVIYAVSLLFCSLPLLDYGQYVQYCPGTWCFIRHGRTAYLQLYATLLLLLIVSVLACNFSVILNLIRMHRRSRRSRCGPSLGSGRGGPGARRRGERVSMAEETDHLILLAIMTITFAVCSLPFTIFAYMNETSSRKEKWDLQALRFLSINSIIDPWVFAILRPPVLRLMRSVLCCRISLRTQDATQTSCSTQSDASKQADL
# [2] = target: T1, Prostaglandin E2 receptor EP2 subtype; test: Radioligand Binding Assay: The cell homogenate was centrifuged at 19000 r.p.m. for 20 min at 4° C. using a Beckman Ti-60 rotor. The resultant pellet was resuspended in TME buffer to give a final 1 mg/ml protein concentration, as determined by Biorad assay. Radioligand binding competition assays vs. [3H-]17-phenyl PGF2a , (5 nM) were performed in a 100 μl volume for 60 min. Binding reactions were started by adding plasma membrane fraction. The reaction was terminated by the addition of 4 ml ice-cold TRIS-HCl buffer and rapid filtration through glass fiber GF/B filters using a Brandel cell harvester. The filters were washed 3 times with ice-cold buffer and oven dried for one hour. [3H-] PGE2 (specific activity 180 Ci mmol) was used as the radioligand for EP receptors. [3H] 17-phenyl PGF2a, was employed for FP receptor binding studies. Binding studies employing EP1, EP2, EP4 and FP receptors were performed in duplicate in at least three separate experiments. A 200 μl assay volume was used. Incubations w; format: cell-free
# Thromboxane A2 receptor = target: T2, Thromboxane A2 receptor (Homo sapiens, UniProt P21731); test: FLIPR Assay: Calciium Signal Studies of the Flipr. Cells were seeded at a density of 5×10^4 cells per well in Biocoati® Poly-D-lysine-coated black-wall, clear-bottom 96-well plates (Becton-Dickinson) and allowed to attach overnight in an incubator at 37° C. Cells were then washed two times with HBSS-HEPES buffer (Hanks Balanced Salt Solution without bicarbonate and phenol red, 20 mM HEPES, pH 7.4) using a Denley Cellwash plate washer (Labsystems). After 45 minutes of dye-loading in the dark, using the calcium-sensitive dye Fluo-4 AM at a final concentration of 2 μM, plates were washed four times with HBSS-HEPES buffer to remove excess dye leaving 100 μl in each well. Plates were re-equilibrated to 37° C. for a few minutes. Cells were excited with an Argon laser at 488 nm, and emission was measured through a 510-570 nm bandwidth emission filter (FLIPR, Molecular Devices, Sunnyvale, Calif.). Drug solution was added in a 50 μl volume to each well to give the desired final concentration.; format: functional
# T2 sequence (P21731 whole entry): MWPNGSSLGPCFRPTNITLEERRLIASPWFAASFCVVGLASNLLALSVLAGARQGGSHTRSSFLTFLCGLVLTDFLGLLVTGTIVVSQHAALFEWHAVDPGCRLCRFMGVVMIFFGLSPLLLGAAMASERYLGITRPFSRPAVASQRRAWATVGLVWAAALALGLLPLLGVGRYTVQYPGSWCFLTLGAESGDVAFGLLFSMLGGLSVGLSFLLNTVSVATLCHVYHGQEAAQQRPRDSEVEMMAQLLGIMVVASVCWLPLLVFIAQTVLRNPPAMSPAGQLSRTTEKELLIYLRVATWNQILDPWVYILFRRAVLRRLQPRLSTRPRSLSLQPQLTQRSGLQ
smiles,measurement,setting,value
"O=C(O)c1ccc(CC[C@H]2C(=O)CC[C@@H]2/C=C/C(O)Cc2cccc(Br)c2)cc1 (single isomer, unassigned)",EC50,[1],8 nM
same,Ki,[2],1170 nM
same,EC50,Thromboxane A2 receptor,100 nM
